Assay results from US12139520B2 (priority 2020, dated 2024).
Numbered stars: 1 amine (or outer) side, 2 acyl side, 3 side chain; on linkers, the order of the positions; unused ones are H or OH. Bridge positions count the residues as written; N and C are the ends. Square brackets hold non-standard residues; d marks the D form. Side chains are listed from the residue outwards. Peptide text beside a SMILES is read from it. * marks the point of attachment. C20 diacid = O=C(O)CCCCCCCCCCCCCCCCCCC(=O)*; γGlu = O=C(O)[C@H](CCC(=O)[*:2])N[*:1]; Hyp = O=C(O)[C@@H]1C[C@@H](O)CN1; AEEA = NCCOCCOCC(=O)O

Experiments:
hAMY3 receptor = biological target: T1, hAMY3 receptor (Homo sapiens, UniProt O60896+P30988); assay: cAMP assay for in vitro receptor activation, hAMY3-R; assay type: cell-based; conditions: cAMP assay, hAMY3 receptor; read-out: hAMY3R EC50
T1 sequence (P30988 25-474): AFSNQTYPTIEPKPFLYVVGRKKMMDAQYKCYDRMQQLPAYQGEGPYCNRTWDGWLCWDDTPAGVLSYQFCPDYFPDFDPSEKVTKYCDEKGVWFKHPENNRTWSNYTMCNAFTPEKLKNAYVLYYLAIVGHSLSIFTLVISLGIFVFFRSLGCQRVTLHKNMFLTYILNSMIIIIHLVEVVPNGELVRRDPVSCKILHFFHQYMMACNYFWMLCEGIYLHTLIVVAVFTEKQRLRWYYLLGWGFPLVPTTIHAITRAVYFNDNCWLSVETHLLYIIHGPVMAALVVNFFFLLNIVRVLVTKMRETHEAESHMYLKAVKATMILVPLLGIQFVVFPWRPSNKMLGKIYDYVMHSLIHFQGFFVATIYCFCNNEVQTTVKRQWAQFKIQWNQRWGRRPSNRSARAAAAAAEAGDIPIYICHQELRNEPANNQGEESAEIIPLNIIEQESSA
T1 sequence (O60896 24-148 partner): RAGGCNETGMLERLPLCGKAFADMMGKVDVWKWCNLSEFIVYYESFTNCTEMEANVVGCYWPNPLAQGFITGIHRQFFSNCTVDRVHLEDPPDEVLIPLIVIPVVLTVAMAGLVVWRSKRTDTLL
How it was run: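 Monoclonal cell line stably overexpressing human AMY3 receptor, 2000 cells/well in DPBS with 0.05% casein and 0.5 mM IBMX. Stimulated 30 min at room temperature with graded compound doses, human amylin as positive control. cAMP accumulation read by TR-FRET after one hour.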

hAM1 receptor = hAM1 receptor (Homo sapiens, UniProt O60895+Q16602); assay: cAMP assay for in vitro receptor activation, hAM1-R; assay type: cell-based; conditions: cAMP assay, hAM1 receptor; read-out: hAM1R EC50
Description: General Protocols for cAMP Assays for Measuring In Vitro Receptor Activation
Cells stably overexpressing the hAM1 receptor were obtained from Ogeda (now Astellas Pharma), sub-cloned and a monoclonal cell-line with an appropriate assay-window was expanded, aliquoted and frozen. An aliquot was thawed and plated in DPBS with 0.05% casein and 0.5 mM IBMX as 8000 cells/well in a 384-well format.

Chain of hAM1 receptor (Q16602 23-461): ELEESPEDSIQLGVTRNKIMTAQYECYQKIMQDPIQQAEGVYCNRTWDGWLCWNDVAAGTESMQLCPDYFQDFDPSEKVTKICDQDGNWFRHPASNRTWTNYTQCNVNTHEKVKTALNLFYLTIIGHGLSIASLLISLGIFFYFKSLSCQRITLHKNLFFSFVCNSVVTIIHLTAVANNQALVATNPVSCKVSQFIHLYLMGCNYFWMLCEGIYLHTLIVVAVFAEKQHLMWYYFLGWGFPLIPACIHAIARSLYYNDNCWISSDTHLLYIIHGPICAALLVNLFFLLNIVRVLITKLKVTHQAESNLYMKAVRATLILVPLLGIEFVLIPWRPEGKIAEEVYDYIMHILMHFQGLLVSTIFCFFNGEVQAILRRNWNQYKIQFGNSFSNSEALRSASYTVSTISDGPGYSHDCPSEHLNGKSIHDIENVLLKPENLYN
Chain of hAM1 receptor (O60895 43-175 partner): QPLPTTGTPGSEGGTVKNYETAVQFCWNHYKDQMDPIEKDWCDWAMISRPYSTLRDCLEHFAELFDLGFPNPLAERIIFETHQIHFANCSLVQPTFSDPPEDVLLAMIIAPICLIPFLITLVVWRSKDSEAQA

| SMILES | EC50 (hAMY3 receptor) | EC50 (hAM1 receptor) |
| --- | --- | --- |
| CC[C@H](C)[C@H](NC(=O)[C@H](CCC(N)=O)NC(=O)[C@H](Cc1c[nH]cn1)NC(=O)[C@H](C)NC(=O)[C@H](CC(C)C)NC(=O)[C@H](CCCNC(=N)N)NC(=O)[C@H](CCC(N)=O)NC(=O)[C@@H](NC(=O)[C@@H](NC(=O)[C@@H]1CSSC[C@H](NC(=O)[C@H](CCCCN)NC(=O)CC[C@H](NC(=O)CCCCCCCCCCCCCCCCCCC(=O)O)C(=O)O)C(=O)N[C@@H](CC(N)=O)C(=O)N[C@@H]([C@@H](C)O)C(=O)N[C@@H](C)C(=O)N[C@@H]([C@@H](C)O)C(=O)N1)[C@@H](C)O)C(C)C)C(=O)N[C@@H](CC(N)=O)C(=O)N[C@@H](CCC(N)=O)C(=O)N[C@@H](Cc1ccccc1)C(=O)N[C@H](C(=O)N[C@@H](CC(=O)O)C(=O)N[C@@H](CCCCN)C(=O)N[C@@H](CC(=O)O)C(=O)N[C@@H](CCCCN)C(=O)N[C@@H](CC(=O)O)C(=O)N[C@@H](CC(N)=O)C(=O)N[C@H](C(=O)N[C@@H](C)C(=O)N1CCC[C@H]1C(=O)N1CCC[C@H]1C(=O)N[C@H](C(=O)N[C@@H](CC(N)=O)C(=O)N[C@H](C(=O)NCC(=O)N[C@@H](CO)C(=O)N[C@@H](CC(N)=O)C(=O)NCC(=O)N1C[C@H](O)C[C@H]1C(N)=O)C(C)C)[C@@H](C)O)C(C)C)[C@@H](C)O [compound 11] ({C20 diacid-γGlu}-KCNTATCTVQRLAHQINQFTDKDKDNVAPPTNVGSNG[Hyp]-NH2; disulfide 2-7) | 0.007 nM | > 5000 nM |
| CC[C@H](C)[C@H](NC(=O)[C@H](CCC(N)=O)NC(=O)[C@H](CCC(=O)O)NC(=O)[C@H](C)NC(=O)[C@H](CC(C)C)NC(=O)[C@H](CCCNC(=N)N)NC(=O)[C@H](CCC(N)=O)NC(=O)[C@@H](NC(=O)[C@@H](NC(=O)[C@@H]1CSSC[C@H](NC(=O)[C@@H](N)CCCCN)C(=O)N[C@@H](CC(N)=O)C(=O)N[C@@H]([C@@H](C)O)C(=O)N[C@@H](C)C(=O)N[C@@H]([C@@H](C)O)C(=O)N1)[C@@H](C)O)C(C)C)C(=O)N[C@@H](Cc1ccc(O)cc1)C(=O)N[C@@H](CCC(N)=O)C(=O)N[C@@H](Cc1ccccc1)C(=O)N[C@H](C(=O)N[C@@H](CC(=O)O)C(=O)N[C@@H](CCCCN)C(=O)N[C@@H](CC(=O)O)C(=O)N[C@@H](CCCCN)C(=O)N[C@@H](CC(=O)O)C(=O)N[C@@H](CC(N)=O)C(=O)N[C@@H](CCCCNC(=O)COCCOCCNC(=O)COCCOCCNC(=O)CC[C@H](NC(=O)CCCCCCCCCCCCCCCCCCC(=O)O)C(=O)O)C(=O)N[C@@H](C)C(=O)N1CCC[C@H]1C(=O)N1CCC[C@H]1C(=O)N[C@H](C(=O)N[C@@H](CC(N)=O)C(=O)N[C@H](C(=O)NCC(=O)N[C@@H](CO)C(=O)N[C@@H](CC(N)=O)C(=O)NCC(=O)N1C[C@H](O)C[C@H]1C(N)=O)C(C)C)[C@@H](C)O)[C@@H](C)O [compound 12] (H-KCNTATCTVQRLAEQIYQFTDKDKDNK([AEEA-AEEA-γGlu-C20 diacid])APPTNVGSNG[Hyp]-NH2; disulfide 2-7; N-terminus assumed) | 0.007 nM | > 5000 nM |
| CC[C@H](C)[C@H](NC(=O)[C@H](CCC(N)=O)NC(=O)[C@H](CC(=O)O)NC(=O)[C@H](C)NC(=O)[C@H](CC(C)C)NC(=O)[C@H](CCCNC(=N)N)NC(=O)[C@H](C)NC(=O)[C@@H](NC(=O)[C@@H](NC(=O)[C@@H]1CSSC[C@H](NC(=O)[C@@H](N)CCCCN)C(=O)N[C@@H](CC(N)=O)C(=O)N[C@@H]([C@@H](C)O)C(=O)N[C@@H](CO)C(=O)N[C@@H]([C@@H](C)O)C(=O)N1)[C@@H](C)O)C(C)C)C(=O)N[C@H](C(=O)N[C@@H](CCC(N)=O)C(=O)N[C@@H](Cc1ccccc1)C(=O)N[C@@H](CO)C(=O)N[C@@H](CC(=O)O)C(=O)N[C@@H](CCCCN)C(=O)N[C@@H](CC(=O)O)C(=O)N[C@@H](CCCCN)C(=O)N[C@@H](C)C(=O)N[C@@H](CC(N)=O)C(=O)N[C@H](C(=O)N[C@@H](CO)C(=O)N1CCC[C@H]1C(=O)N1CCC[C@H]1C(=O)N[C@H](C(=O)N[C@@H](CCC(=O)O)C(=O)N[C@H](C(=O)NCC(=O)N1CCC[C@H]1C(=O)N[C@@H](CC(N)=O)C(=O)N[C@@H](CO)C(=O)N1C[C@H](O)C[C@H]1C(N)=O)C(C)C)[C@@H](C)O)C(C)C)[C@@H](C)O [compound 15] (H-KCNTSTCTVARLADQITQFSDKDKANVSPPTEVGPNS[Hyp]-NH2; disulfide 2-7; N-terminus assumed) | 0.007 nM | > 5000 nM |
| CC[C@H](C)[C@H](NC(=O)[C@H](C)NC(=O)CNC(=O)[C@H](Cc1ccccc1)NC(=O)[C@H](CC(N)=O)NC(=O)[C@H](CC(N)=O)NC(=O)[C@H](CO)NC(=O)[C@H](CO)NC(=O)[C@H](Cc1c[nH]cn1)NC(=O)[C@@H](NC(=O)[C@H](CC(C)C)NC(=O)[C@H](Cc1ccccc1)NC(=O)[C@H](CC(N)=O)NC(=O)[C@H](C)NC(=O)[C@H](CC(C)C)NC(=O)[C@H](CCCNC(=N)N)NC(=O)[C@H](CCC(N)=O)NC(=O)[C@@H](NC(=O)[C@H](C)NC(=O)[C@@H]1CSSC[C@H](NC(=O)[C@@H](N)CCCCN)C(=O)N[C@@H](CC(N)=O)C(=O)N[C@@H]([C@@H](C)O)C(=O)N[C@@H](C)C(=O)N[C@@H]([C@@H](C)O)C(=O)N1)[C@@H](C)O)C(C)C)C(=O)N[C@@H](CC(C)C)C(=O)N1CCC[C@H]1C(=O)N[C@@H](CCCNC(=N)N)C(=O)N[C@H](C(=O)N[C@@H](CCCCN)C(=O)N[C@H](C(=O)NCC(=O)N[C@@H](CO)C(=O)N[C@@H](CC(N)=O)C(=O)NCC(=O)N[C@@H](Cc1ccc(O)cc1)C(N)=O)C(C)C)[C@@H](C)O [compound 19] (H-KCNTATCATQRLANFLVHSSNNFGAILPRTKVGSNGY-NH2; disulfide 2-7) | 0.008 nM | > 5000 nM |
| CC[C@H](C)[C@H](NC(=O)[C@H](CCC(N)=O)NC(=O)[C@H](CC(N)=O)NC(=O)[C@H](C)NC(=O)[C@H](CC(C)C)NC(=O)[C@H](CCCNC(=N)N)NC(=O)[C@H](CCC(N)=O)NC(=O)[C@@H](NC(=O)[C@@H](NC(=O)[C@@H]1CSSC[C@H](NC(=O)[C@H](CCCCN)NC(=O)CC[C@H](NC(=O)CCCCCCCCCCCCCCCCCCC(=O)O)C(=O)O)C(=O)N[C@@H](CC(N)=O)C(=O)N[C@@H]([C@@H](C)O)C(=O)N[C@@H](C)C(=O)N[C@@H]([C@@H](C)O)C(=O)N1)[C@@H](C)O)C(C)C)C(=O)N[C@@H](Cc1ccc(O)cc1)C(=O)N[C@@H](CCC(N)=O)C(=O)N[C@@H](Cc1ccccc1)C(=O)N[C@H](C(=O)N[C@@H](CC(=O)O)C(=O)N[C@@H](CCCCN)C(=O)N[C@@H](CC(=O)O)C(=O)N[C@@H](CCCCN)C(=O)N[C@@H](CC(=O)O)C(=O)N[C@@H](CC(N)=O)C(=O)N[C@H](C(=O)N[C@@H](C)C(=O)N1CCC[C@H]1C(=O)N1CCC[C@H]1C(=O)N[C@H](C(=O)N[C@@H](CC(N)=O)C(=O)N[C@H](C(=O)NCC(=O)N[C@@H](CO)C(=O)N[C@@H](CC(N)=O)C(=O)NCC(=O)N1C[C@H](O)C[C@H]1C(N)=O)C(C)C)[C@@H](C)O)C(C)C)[C@@H](C)O [compound 21] ({C20 diacid-γGlu}-KCNTATCTVQRLANQIYQFTDKDKDNVAPPTNVGSNG[Hyp]-NH2; disulfide 2-7) | 0.008 nM | > 5000 nM |
